The source made the active and inactive calls.
Tests used:
Cytochrome P450 2C9 = Cytochrome P450 2C9 (Homo sapiens, UniProt P11712)
[1] = inhibitors of HIV Env-driven cell fusion, dose response, cherry-pick (AID 652057); assay type: functional, cell-based
[2] = ZM109 Env clade C HIV-1 fusion inhibitors, dose response, HeLa effector, CEM target cells, luciferase, cherry-pick (AID 652058); assay type: functional, cell-based
[3] = off-target signal loss in HeLa-CEM21 co-culture – HeLa F-luc CTL cells, cherry-picked, counter-screen for HIV-1 Env fusion inhibitor project, dose response (AID 652040); assay type: functional, cell-based;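 note: potency for signal decrease marking cytotoxic or nonspecific inhibition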
[4] = inhibitors of clade B AD8 Env fusion, dose response, cell-based, cherry-pick (AID 652062); assay type: functional;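 note: luciferase signal from cell-cell fusion driven by HIV-1 clade B AD8 Env; potency is for inhibitors of fusion seen as a drop in luminescence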
[5] = target: T1, Polyadenylate-binding protein 1 (Homo sapiens, UniProt P11940); test: PABP1 MLLE–PAM2 interaction inhibitors, dose response, miRNA deadenylation inhibitor project, biochemical, fluorescence polarization, Cy5-PAM2 peptide, secondary (AID 602260); assay type: functional; conditions: read-out: IC50_Mean
[6] = target: T1, Polyadenylate-binding protein 1; test: PABP1 MLLE–PAM2 binding inhibitor potency, dose response, biochemical, fluorescence polarization, FITC-PAM2 peptide (AID 602259); assay type: functional; conditions: read-out: IC50_Mean
[7] = inhibitors of intracellular T. cruzi replication, confirmation, NIH3T3 host cells, beta-gal luminescence (AID 2044); assay type: functional, cell-based;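 note: intracellular parasites grown in NIH/3T3 mouse fibroblasts as host cells; luminescent beta-galactosidase reporter signal from transgenic T. cruzi replicating inside host cells; inhibitors lower the luminescence signal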
[8] = cytotoxicity toward NIH3T3 fibroblasts, dose response, counter-screen, cell-based, ATP luminescence, mouse fibroblasts (AID 2010); assay type: functional;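 note: cells exposed to compound for about 90 hours before reading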
[9] = Luminescence Cell-Based Dose Retest to Confirm Inhibitors of Cancer Stem Cells. [Related pubchem assays (depositor defined):AID2717, AID2721]; assay type: functional; conditions: Homo sapiens
[10] = target: T2, Microphthalmia-associated transcription factor (Homo sapiens, UniProt O75030); test: TRPM1 promoter luciferase signal decrease, dose response, MITF inhibitor project, cell-based, SK-MEL-5, cherry-picked, set 3 (AID 493073); assay type: functional
T2 sequence (O75030 whole entry): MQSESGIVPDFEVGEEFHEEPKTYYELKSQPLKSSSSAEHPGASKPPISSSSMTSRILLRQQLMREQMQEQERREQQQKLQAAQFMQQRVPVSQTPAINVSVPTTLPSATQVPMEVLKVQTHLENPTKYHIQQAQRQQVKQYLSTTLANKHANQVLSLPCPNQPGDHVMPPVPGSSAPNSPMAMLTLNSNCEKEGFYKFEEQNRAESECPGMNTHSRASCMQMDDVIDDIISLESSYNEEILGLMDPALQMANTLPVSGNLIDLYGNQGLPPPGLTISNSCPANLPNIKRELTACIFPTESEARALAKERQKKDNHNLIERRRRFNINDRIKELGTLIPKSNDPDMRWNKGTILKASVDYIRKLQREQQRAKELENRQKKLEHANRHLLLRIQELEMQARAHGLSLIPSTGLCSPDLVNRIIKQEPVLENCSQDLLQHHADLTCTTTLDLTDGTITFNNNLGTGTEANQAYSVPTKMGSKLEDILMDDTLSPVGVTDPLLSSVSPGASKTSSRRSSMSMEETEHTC

INS1 = test: beta cell apoptosis inhibitors, cytokine rescue, dose response, luminescence, retest (AID 449756); assay type: functional, cell-based; conditions: Rattus norvegicus;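 note: cell death triggered by IL-1 beta plus TNF-alpha plus IFN-gamma mixture; protective hits raise ATP signal compared with cytokine alone wells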
Protein skinhead-1 = target: T3, Protein skinhead-1 (Caenorhabditis elegans, UniProt P34707); assay type: functional
T3 sequence (P34707 whole entry): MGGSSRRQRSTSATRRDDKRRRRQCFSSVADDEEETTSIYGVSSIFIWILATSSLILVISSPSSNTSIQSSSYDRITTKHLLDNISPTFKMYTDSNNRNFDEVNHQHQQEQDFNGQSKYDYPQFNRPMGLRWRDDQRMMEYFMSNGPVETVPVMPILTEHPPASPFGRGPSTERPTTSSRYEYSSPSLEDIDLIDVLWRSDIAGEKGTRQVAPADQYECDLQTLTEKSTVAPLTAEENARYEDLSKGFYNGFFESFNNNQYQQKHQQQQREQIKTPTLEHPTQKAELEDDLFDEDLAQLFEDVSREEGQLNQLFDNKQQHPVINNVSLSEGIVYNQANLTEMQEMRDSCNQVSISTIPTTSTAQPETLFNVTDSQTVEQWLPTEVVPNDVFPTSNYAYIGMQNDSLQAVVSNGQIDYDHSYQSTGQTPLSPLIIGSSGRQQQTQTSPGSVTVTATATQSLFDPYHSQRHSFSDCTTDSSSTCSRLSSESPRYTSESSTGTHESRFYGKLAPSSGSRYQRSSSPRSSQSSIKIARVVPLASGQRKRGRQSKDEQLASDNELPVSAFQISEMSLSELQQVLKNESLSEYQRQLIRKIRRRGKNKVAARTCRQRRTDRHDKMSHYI

[11] = target: T4, RNA-binding protein pos-1 (Caenorhabditis elegans, UniProt G5EF15); test: inhibitors of POS-1/mex-3 RNA binding, dose response, biochemical, fluorescence polarization (AID 1964);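 note: purified POS-1 fused to maltose binding protein made in E. coli; potency of compounds blocking POS-1 binding to fluorescent RNA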
T4 sequence (G5EF15 whole entry): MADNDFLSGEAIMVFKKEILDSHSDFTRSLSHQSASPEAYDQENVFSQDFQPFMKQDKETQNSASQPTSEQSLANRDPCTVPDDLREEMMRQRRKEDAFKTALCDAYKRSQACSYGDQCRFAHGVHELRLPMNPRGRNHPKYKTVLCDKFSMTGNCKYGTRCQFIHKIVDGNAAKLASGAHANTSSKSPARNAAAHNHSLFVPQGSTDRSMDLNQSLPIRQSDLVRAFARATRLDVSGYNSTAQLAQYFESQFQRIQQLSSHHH

[12] = target: T5, Zinc finger protein mex-5 (Caenorhabditis elegans, UniProt Q9XUB2); test: MEX-5/TCR-2 RNA interaction inhibitors, dose response, biochemical, C. elegans, fluorescence polarization (AID 1960)
T5 sequence (Q9XUB2 whole entry): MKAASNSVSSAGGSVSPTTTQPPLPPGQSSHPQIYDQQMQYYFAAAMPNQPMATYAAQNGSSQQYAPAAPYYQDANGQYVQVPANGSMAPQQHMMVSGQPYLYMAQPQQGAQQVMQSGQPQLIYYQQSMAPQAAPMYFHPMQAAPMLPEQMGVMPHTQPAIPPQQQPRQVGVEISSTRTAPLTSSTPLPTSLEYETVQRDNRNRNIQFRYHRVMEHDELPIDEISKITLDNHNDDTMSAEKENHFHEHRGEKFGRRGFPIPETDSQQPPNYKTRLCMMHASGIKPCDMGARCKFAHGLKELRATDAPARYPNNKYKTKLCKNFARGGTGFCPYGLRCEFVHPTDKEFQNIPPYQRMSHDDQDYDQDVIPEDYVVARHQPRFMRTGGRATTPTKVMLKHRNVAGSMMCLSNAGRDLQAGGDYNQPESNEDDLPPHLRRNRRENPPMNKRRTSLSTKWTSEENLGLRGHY

[13] = target: Eukaryotic translation initiation factor 4E (Mus musculus, UniProt P63073); test: eIF4E–eIF4G protein interaction inhibitors, dose response, biochemical, TR-FRET (AID 855); assay type: functional;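 note: potency for disrupting eIF4E binding to eIF4GI seen as loss of FRET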
Nonstructural protein 1 = Nonstructural protein 1 (Influenza A virus, UniProt Q194T2); assay type: functional, Influenza A virus (A/California/07/2009(H1N1))
[14] = target: T6, Rac GTPase-activating protein 1 (Homo sapiens, UniProt Q9H0H5); test: MgcRacGAP GTPase-activating activity inhibitors, confirmation, biochemical, ADP Hunter fluorescence, primary and confirmatory (AID 624330); assay type: functional
T6 sequence (Q9H0H5 whole entry): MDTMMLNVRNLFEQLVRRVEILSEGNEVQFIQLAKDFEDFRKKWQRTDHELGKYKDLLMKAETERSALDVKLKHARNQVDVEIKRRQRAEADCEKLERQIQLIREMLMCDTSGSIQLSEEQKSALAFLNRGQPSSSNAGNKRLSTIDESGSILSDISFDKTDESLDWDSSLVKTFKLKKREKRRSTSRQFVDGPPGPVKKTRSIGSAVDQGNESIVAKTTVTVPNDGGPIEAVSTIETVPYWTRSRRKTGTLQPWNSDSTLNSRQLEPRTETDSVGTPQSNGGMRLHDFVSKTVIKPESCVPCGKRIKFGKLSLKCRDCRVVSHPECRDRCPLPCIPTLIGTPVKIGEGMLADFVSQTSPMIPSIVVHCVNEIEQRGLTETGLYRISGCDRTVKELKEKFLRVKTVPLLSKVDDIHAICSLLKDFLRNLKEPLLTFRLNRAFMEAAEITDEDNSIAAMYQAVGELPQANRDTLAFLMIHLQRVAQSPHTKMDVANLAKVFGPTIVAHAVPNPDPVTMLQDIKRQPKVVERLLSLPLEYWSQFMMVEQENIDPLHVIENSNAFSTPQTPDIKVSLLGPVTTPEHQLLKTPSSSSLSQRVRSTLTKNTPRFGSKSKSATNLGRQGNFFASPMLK

Cytochrome P450 2D6 = Cytochrome P450 2D6 (Homo sapiens, UniProt P10635);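 note: CYP2D6 member of a cytochrome P450 panel assay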
[15] = target: Induced myeloid leukemia cell differentiation protein Mcl-1 (Homo sapiens, UniProt Q07820); assay type: functional
[16] = NIH-3T3 fibroblast cytotoxicity, dose response, cytotoxicity control, cell-based, fluorescence, Alamar Blue, secondary assay (AID 2327); assay type: functional;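 note: NIH-3T3 mouse fibroblasts cultured with fluconazole at 8 µg/mL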
[17] = C. albicans growth with fluconazole, confirmation, fluorescence, retest (AID 2467); assay type: functional, cell-based

T1 sequence (P11940 whole entry): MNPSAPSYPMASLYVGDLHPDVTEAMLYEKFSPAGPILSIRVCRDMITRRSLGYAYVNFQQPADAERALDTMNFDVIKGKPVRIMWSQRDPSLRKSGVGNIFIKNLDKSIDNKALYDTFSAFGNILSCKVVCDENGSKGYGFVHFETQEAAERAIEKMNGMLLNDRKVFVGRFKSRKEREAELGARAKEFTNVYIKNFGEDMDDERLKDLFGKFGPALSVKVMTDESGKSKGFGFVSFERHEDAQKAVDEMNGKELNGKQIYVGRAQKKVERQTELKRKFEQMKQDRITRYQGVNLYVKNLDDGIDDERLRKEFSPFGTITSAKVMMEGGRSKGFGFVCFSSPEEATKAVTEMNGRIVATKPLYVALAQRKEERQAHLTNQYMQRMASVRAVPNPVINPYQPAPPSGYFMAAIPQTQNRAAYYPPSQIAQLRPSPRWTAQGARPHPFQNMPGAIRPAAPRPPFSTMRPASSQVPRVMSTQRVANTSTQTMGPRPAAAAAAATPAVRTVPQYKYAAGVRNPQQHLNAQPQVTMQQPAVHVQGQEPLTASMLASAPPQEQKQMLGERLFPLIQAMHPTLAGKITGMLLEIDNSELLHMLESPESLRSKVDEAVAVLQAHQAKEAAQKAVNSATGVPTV
Chain of Cytochrome P450 2C9 (P11712 whole entry, the tested form may be a part): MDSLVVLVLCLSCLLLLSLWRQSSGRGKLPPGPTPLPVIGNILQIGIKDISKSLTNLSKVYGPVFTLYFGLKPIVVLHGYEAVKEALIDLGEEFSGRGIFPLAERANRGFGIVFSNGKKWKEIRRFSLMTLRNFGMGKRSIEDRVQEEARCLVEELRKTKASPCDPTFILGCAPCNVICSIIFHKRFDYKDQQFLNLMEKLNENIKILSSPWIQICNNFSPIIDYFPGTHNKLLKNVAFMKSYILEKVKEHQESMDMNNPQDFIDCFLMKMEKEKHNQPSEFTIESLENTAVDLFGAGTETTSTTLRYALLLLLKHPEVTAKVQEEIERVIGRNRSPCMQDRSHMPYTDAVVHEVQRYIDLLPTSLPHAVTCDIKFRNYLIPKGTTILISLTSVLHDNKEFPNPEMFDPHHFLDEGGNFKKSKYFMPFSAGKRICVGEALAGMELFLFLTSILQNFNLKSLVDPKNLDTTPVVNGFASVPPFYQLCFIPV
Chain of Nonstructural protein 1 (Q194T2 whole entry): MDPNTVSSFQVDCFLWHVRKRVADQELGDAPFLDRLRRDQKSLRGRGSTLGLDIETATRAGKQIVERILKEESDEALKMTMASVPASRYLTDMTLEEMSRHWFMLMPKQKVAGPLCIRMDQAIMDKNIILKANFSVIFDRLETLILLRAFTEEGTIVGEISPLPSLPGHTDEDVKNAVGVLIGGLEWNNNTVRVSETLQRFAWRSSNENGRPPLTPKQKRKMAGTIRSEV
Chain of Eukaryotic translation initiation factor 4E (P63073 whole entry): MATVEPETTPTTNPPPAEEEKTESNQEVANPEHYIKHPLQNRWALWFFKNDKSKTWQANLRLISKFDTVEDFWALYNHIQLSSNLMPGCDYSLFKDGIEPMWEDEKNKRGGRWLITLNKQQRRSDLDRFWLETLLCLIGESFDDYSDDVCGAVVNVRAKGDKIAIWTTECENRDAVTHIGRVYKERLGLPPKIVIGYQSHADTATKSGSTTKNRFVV
Chain of Cytochrome P450 2D6 (P10635 whole entry): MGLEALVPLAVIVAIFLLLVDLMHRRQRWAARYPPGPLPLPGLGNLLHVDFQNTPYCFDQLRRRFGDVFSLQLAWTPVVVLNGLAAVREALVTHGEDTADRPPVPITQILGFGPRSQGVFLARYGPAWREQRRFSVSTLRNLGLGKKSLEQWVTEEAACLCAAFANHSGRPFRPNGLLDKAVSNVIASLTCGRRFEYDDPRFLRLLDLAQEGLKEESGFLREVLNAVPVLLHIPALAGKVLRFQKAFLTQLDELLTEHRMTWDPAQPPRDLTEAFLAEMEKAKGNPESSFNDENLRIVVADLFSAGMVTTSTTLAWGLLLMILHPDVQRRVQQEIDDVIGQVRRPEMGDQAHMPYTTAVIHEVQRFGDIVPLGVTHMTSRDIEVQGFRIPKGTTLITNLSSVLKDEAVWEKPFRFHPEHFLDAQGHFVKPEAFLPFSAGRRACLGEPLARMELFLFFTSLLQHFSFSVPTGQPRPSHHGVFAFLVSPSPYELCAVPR
Chain of Induced myeloid leukemia cell differentiation protein Mcl-1 (Q07820 whole entry): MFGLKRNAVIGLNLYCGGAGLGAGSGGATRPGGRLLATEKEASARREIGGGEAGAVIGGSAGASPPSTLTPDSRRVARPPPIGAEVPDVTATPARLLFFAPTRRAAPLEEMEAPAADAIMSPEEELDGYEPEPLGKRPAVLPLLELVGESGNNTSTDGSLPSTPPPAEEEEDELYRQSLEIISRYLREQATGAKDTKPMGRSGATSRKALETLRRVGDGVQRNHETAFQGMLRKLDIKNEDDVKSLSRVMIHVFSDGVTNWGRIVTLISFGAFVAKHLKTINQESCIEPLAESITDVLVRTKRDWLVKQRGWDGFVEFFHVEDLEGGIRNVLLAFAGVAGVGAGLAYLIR

O=C(OCC#CCSc1nnc(-c2cccc3ccccc23)o1)c1ccco1
AC50 (Cytochrome P450 2C9): inconclusive

CN(C)C(=O)CCC(=O)N1CCCC(C(=O)c2ccc3c4c(cccc24)CC3)C1 (stereo not given)
AC50 [1]: 0.498 µM (active) | AC50 [2]: 0.53 µM (active) | AC50 [3]: 0.753 µM (active) | AC50 [4]: 2.71 µM (active)

CN=C(S)SCCOc1ccccc1
IC50 [5]: > 66 µM (inactive) | IC50 [6]: > 66 µM (inactive)

Cc1ccc(C(C)C)c(OCc2n[n+](CC(=O)c3ccc(Cl)cc3)c3n2CCCCC3)c1
EC50 [7]: 0.304 µM (active) | EC50 [8]: > 60 µM (not active) | AC50 [9]: 3.31 µM (active) | AC50 [10]: 9.83 µM (active) | AC50 (INS1): 3.41 µM (active)

Cc1cc2cc(CNC(=O)Nc3ccccc3)ccc2n1C
IC50 [5]: > 66 µM (inactive) | IC50 [6]: > 66 µM (inactive) | IC50 (Protein skinhead-1): > 100 µM (inactive)

CCOC(=S)SCc1cn2cccc(C)c2n1
IC50 [5]: > 66 µM (inactive) | IC50 [6]: > 66 µM (inactive)

COc1ccc2c(c1)OC[C@H]1[C@H]2N2C(=O)CN(Cc3ccc(C)cc3)C(=O)[C@@]2(C)[C@H]1c1ccccc1
AC50 [1]: 7.77 µM (active) | AC50 [2]: 15.5 µM (active) | AC50 [3]: 26.9 µM (active) | AC50 [4]: 5.83 µM (active)

CC1CCCCN1C(=O)Cn1nnc(-c2cccnc2)n1 (stereo not given)
IC50 [5]: > 66 µM (inactive) | IC50 [6]: 17 µM (active)

O=C(/C=C/c1ccc([N+](=O)[O-])s1)N1CCCC1
EC50 [11]: > 300 µM (not active) | EC50 [12]: > 300 µM (not active) | EC50 [7]: 1.03 µM (active) | EC50 [8]: > 60 µM (not active) | AC50 [10]: 9.86 µM (active)

CC(=O)N1CCN(c2ccc(NC(=S)NC(=O)COc3ccc(C(C)(C)C)cc3)cc2)CC1
IC50 [5]: > 66 µM (inactive) | IC50 [6]: > 66 µM (inactive)

Nc1ccc(N(c2ccccc2)c2ccc(N)cc2)cc1
EC50 [7]: 1.81 µM (active) | EC50 [8]: > 60 µM (not active) | IC50 [13]: > 64 µM (inactive) | IC50 (Nonstructural protein 1): 9.26 µM (active) | IC50 [14]: 8.57 µM (active)

S=c1nc(-c2ccccc2)oc2c1CCCC2
AC50 (Cytochrome P450 2C9): inconclusive

COc1ccc(C(=S)N2CCC(C(N)=O)CC2)cc1Br
IC50 [5]: > 66 µM (inactive) | IC50 [6]: > 66 µM (inactive)

COc1ccc(CCNC(=O)c2nn(C)c3c2CS(=O)(=O)c2ccccc2-3)cc1OC
EC50 [11]: > 300 µM (not active) | EC50 [12]: > 300 µM (not active)

CN1C(=O)C(=Cc2ccc(SC3CCCCC3)o2)C(=O)N(C)C1=O
EC50 [11]: > 300 µM (not active) | EC50 [12]: > 300 µM (not active)

CCCCCCN1C=CC(=C2C(=O)c3ccccc3C2=O)C=C1
AC50 [10]: 3.86 µM (active)

Cc1noc(C)c1-c1nccc(-n2ccnc2)n1
AC50 (Cytochrome P450 2D6): 20 µM (inconclusive) | AC50 (Cytochrome P450 2C9): inconclusive

COc1cccc(C2C(C#N)=C(N)OC3=C2C(=O)CCC3)c1OC(=O)c1ccco1 (stereo not given)
EC50 [11]: > 300 µM (not active) | EC50 [12]: > 300 µM (not active)

Cc1cccc(NC(=O)CCCN2C(=O)c3cccc4cccc(c34)C2=O)c1
AC50 (Cytochrome P450 2D6): 25.1 µM (inconclusive) | AC50 (Cytochrome P450 2C9): inconclusive

Cc1cc([N+](=O)[O-])ccc1-c1ccc(/C=N/NC(=O)c2ccc(Br)o2)o1
EC50 [11]: 19.7 µM (active) | EC50 [12]: 5.51 µM (active) | AC50 [9]: 2.35 µM (active)

O=C(O)c1ccccc1N/N=C/c1c(Sc2nnnn2-c2ccccc2)nc2ccccn2c1=O
EC50 [11]: > 300 µM (not active) | EC50 [12]: 116 µM (active) | IC50 [15]: 2.58 µM (active)

CCN(CC)c1ccc(/N=C/c2c(C)[nH]c3ccccc23)cc1
IC50 [13]: > 64 µM (inactive) | IC50 (Nonstructural protein 1): 29.3 µM (active) | IC50 [14]: 43.7 µM (active)

O=C(N/N=C/c1ccc(F)cc1)c1c(O)nc2ccccc2c1O
AC50 [10]: 9.64 µM (active)

O=C(N/N=C/c1sc(N2CCOCC2)nc1-c1ccccc1)c1cccc(S(=O)(=O)N2CCOCC2)c1
EC50 [16]: > 150 µM (inactive) | EC50 [17]: > 38 µM (not active) | AC50 [1]: 4.02 µM (active) | AC50 [2]: 4.42 µM (active) | AC50 [3]: 6.84 µM (active) | AC50 [4]: 3.47 µM (active)

Source: ChEMBL document CHEMBL1201862, “PubChem BioAssay data set” (2004)
